According to publication PMC7297445, “Pharmacokinetic/Pharmacodynamic Determination and Preclinical Pharmacokinetics of the β-Lactamase Inhibitor ETX1317 and Its Orally Available Prodrug ETX0282” (ACS Infectious Diseases, 2020):
Like-named read-outs stand apart in the source and are kept apart here.

Tests used:
[1] = Intravenous pharmacokinetics of ETX1317; format: in vivo; conditions: male, dog, i.v. 1 mg/kg
Method: (§1) Intravenous pharmacokinetics of ETX1317 investigated in jugular vein cannulated male Sprague–Dawley rats (Charles River Laboratories, n = 3/route) at a dose of 10 mg/kg formulated in 0.9% saline. Oral pharmacokinetics of ETX0282 was evaluated at a 10 mg/kg equivalent dose of ETX1317 formulated in 25:75 PEG 400:WFI. The pH of each formulation was verified to fall within a range of 4–7 and were confirmed to be in solution prior to dosing. Potency was verified by LC/MS/MS. Dose volumes were 5 and 10 mL/kg for ETX1317(i.v.) and ETX0282(p.o.), respectively for rats. In both dog (male, 3/route) and monkey (male, 3/route) studies, i.v. and p.o. doses were formulated on 25:75 PEG 400:WFI (pH ∼5) and administered at a dose of ∼1 mg/kg. Dose volume was 1 mL/kg for both routes in dogs and monkeys with the i.v. dose infused over 15 min. For oral doses, gavage tubes were flushed with 10 mL after administration of the dose. i.v. doses were sterile-filtered through 0.22 μm PVDF membrane prior to administration into the cephalic vein.
Blood sampling (∼1 mL) for dogs and monkeys was carried out via venipuncture of the jugular vein at the following time points:
i.v.: pre-dose, 0.083, 0.25 (prior to end of infusion), 0.5, 1, 1.5, 2, 4, 6, 8, 12, and 24 h post-dose
Blood samples were centrifuged at 3200 rpm for 10 min at approximately 5 °C. Plasma samples (500 μL) were transferred to 96-well plate tubes (MatrixTech, 0.5 mL). An equal amount (500 μL) of SIGMAFAST protease inhibitor solution (1 tablet dissolved in 10 mL distilled water, Sigma-Aldrich Part No. S8820) was added as a preservative to the 96-well plate tubes resulting in a 1:1 dilution. Diluted plasma samples were stored at −80 ± 10 °C.
(§2) Urine collection was collected directly into Nalgene bottles placed under metabolism cages with frozen ice packs to chill urine over the collection interval. Urine was collected 0–12, and 12–24 h post-dose. Following collection of each urine sample, the total urine weight was recorded and 3 mL aliquots were retained for LC/MS/MS analysis.
(§3) Non-compartmental analysis of time vs concentration data for ETX1317, ETX0282, CPD, and CPDP was completed using WinNonlin 8.1 (Pharsite Corporation, Mountain View CA). The maximum concentration (Cmax) was the highest observed concentration; Tmax was the earliest time at which Cmax occurred; and the elimination half-life was estimated as ln 2/kel, where kel is the elimination rate constant derived from the slope of the log concentration versus time profile. The area under the concentration–time curve from 0 h to the last time point (AUC0-tlast) was calculated by linear trapezoidal approximation. Clearance (CL) was estimated as Dose/AUC0-tlast and the steady state volume of distribution (Vd,ss) was estimated as CL* MRT, where MRT = AUMC/AUC (MRT = mean residence time and AUMC = area under the moment curve). Oral bioavailability (F) was determined from ETX1317 concentrations and normalizing doses to free acid equivalence, where F = AUCp.o.*(dosei.v.)/AUCi.v.*(dosep.o.).

K. pneumoniae ARC4486 = assay: MIC, broth microdilution (CLSI); format: cell-based; conditions: Klebsiella pneumoniae, combination at 1:2 ratio cefpodoxime:ETX1317, MIC of CPD
Method: (§4) MICs were determined utilizing a 1:2 ratio of cefpodoxime:ETX1317. […] The isolates utilized in the present study (Table 1) were broadly insensitive to CPD, presumably due to the presence of ESBLs and carbapenemases expressed in these strains. The addition of ETX1317 restored CPD activity to ≤1 μg/mL across all the tested isolates.
(§5) The MIC of each isolate was determined using the broth microdilution method following CLSI guidelines of document M07-A7 (CLSI M07-A7).

E. coli ARC4419 = assay: MIC, broth microdilution (CLSI); format: cell-based; conditions: Escherichia coli, combination at 1:2 ratio cefpodoxime:ETX1317, MIC of CPD
Method: as §4, §5

E. coli NMC101 = assay: MIC, broth microdilution (CLSI); format: cell-based; conditions: Escherichia coli, combination at 1:2 ratio cefpodoxime:ETX1317, MIC of CPD
Method: as §4, §5

[2] = Human PK prediction (allometric scaling); conditions: for CL/F / V/F: predicted human
From the text: The methodology utilized for prediction of human PK of ETX1317 was consistent with methods used in support of similar chemotypes such as avibactam and ETX2514.[43] Human predictions for volume of distribution (Vd,ss) and clearance (CL) were within 2-fold of observed mean data obtained in Phase 1 studies, with renal clearance as the predominant clearance mechanism.[44],[45] Pharmacokinetic and excretion data from rats, dogs, and monkeys were used collectively for the projection of ETX1317 PK. Liver S9 incubations were also performed across all species (including human) to confirm consistent conversion of ETX0282 to ETX1317 at projected dose levels of ETX0282.[42] Human PK prediction of ETX1317 was completed using single species allometry for volume of distribution from dog PK and dog and monkey single species scaling using liver blood flow to predict non-renal clearance (CLNR).[46] […] While urinary excretion of ETX1317 was lower in dogs relative to monkeys and rats, human renal clearance (CLR) was predicted using dog-human renal correlation,[47] as this method has been highly predictive for compounds that are generally eliminated via renal excretion. The elimination half-life was estimated based upon the combined use of predicted parameters for clearance and volume of distribution, where T1/2 = ln 2*Vd,ss/CLtotal. Allometric scaling predicted human Vd,ss of 0.35 L/kg.
Based upon the non-clinical PK data, a range of 60–80% bioavailability and a moderate absorption rate of 0.5–1.0 h^–1 have been considered for humans. In consideration of these predicted parameters, mean percent fT > CT of 1 μg/mL (2× MIC of 0.5 μg/mL) estimates for a 500 mg ETX1317 equiv q12h dose of ETX0282 are summarized in Table S3.

[3] = Intravenous pharmacokinetics of ETX1317; format: in vivo, rat; conditions: i.v. 10 mg/kg
Method: as §1
Blood samples to be processed for plasma using K2EDTA as an anticoagulant were taken at 0.08, 0.17, 0.25, 0.5, 1, 2, 4, and 8 h (i.v.) and 0.25, 0.5, 1, 2, 4, 8, and 24 h (p.o.) post dose in rats. Blood samples collected into 0.5 mL BD microtainers containing 1.0 mg K2EDTA were centrifuged in a microfuge for 10 min, plasma pipetted to 96 well cryo tubes, and stored at −80 °C prior to analysis.
as §2, §3

[4] = male, Sprague-Dawley, rat, plasma, iv

Compound CC1=C[C@@H](C(N)=O)N2C[C@@H]1N(O[C@H](F)C(=O)O)C2=O [ETX1317] has an AUC ([1]; plasma) of 2760 ± 340 ng·h/mL, a Cmax ([1]; plasma) of 2270 ± 490 ng/mL and a half-life ([1]; plasma) of 48 ± 6 min. It also gave a clearance ([1]; plasma, read-out: CL) of 5.7 ± 0.7 mL/min/kg, a Vd ([1]; plasma, read-out: Vd,ss) of 0.38 ± 0.05 L/kg and a clearance ([1]; urine and plasma, read-out: renal CL) of 1.1 ± 0.3 mL/min/kg. For the same compound, the MIC (K. pneumoniae ARC4486) was 32 µg/mL, the MIC (E. coli ARC4419) was 0.25 µg/mL and the MIC (E. coli NMC101) was 1 µg/mL. It also gave a predicted human half-life ([2]; T1/2 = ln 2*Vd,ss/CLtotal) of 72 to 96 min, a CL/F ([2]; F% 60) of 17.6 to 23.7 L/h and a V/F ([2]; F% 60) of 41 L. It also gave a CL/F ([2]; F% 70) of 15.1 to 20.3 L/h, a V/F ([2]; F% 70) of 35 L and a CL/F ([2]; F% 80) of 13.2 to 17.8 L/h. The V/F ([2]; F% 80) was 31 L, the CL ([3]; 10 mg/kg) was 23.1 ± 1.1 mL/min/kg and the clearance ([3]; male, Sprague-Dawley, rat, plasma, iv, 10 mg/kg, read-out: CL) was 23 mL/min/kg. The AUC [3, 4] was 7190 ± 340 ng·h/mL, the Cmax [3, 4] was 17500 ± 2000 ng/mL and the half-life [3, 4] was 24 ± 1.2 min. It also gave a Vd ([3]; male, Sprague-Dawley, rat, plasma, iv, read-out: Vd,ss) of 0.7 ± 0.01 L/kg and a clearance ([3]; male, Sprague-Dawley, rat, urine and plasma, iv, 10 mg/kg, read-out: renal CL) of 13.4 ± 0.3 mL/min/kg.
